The values below come from patent US12071404B2, “Aza (indole)-, benzothiophene-, and benzofuran-3-sulfonamides” (UCB Pharma GmbH, priority 2016, dated 2024).

Assay [1] concerns the target T1, GPR17 (Homo sapiens, UniProt Q13304). The assay is described as follows: Calcium mobilization functional assay (GPR17 Ca2+ assay). The class given is cell-based. Set-up: host or cells: Flp-In T-REx CHO. Conditions: CHO hGPR17 cells, inhibition of 50 nM MDL29,951, Calcium 5 dye, FLIPR; read-out: Ca2+ assay pIC50 (converted). The method, boiled down: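 Flp-In T-REx CHO cells stably expressing human GPR17, doxycycline-induced (1 μg/mL, 16-20 h), loaded 60 min with Calcium 5 dye. Inhibition by varying test-compound concentrations of the 50 nM MDL29,951 agonist response was read by fluorescence over time at room temperature. pIC50 came from 4-parameter logistic fitting.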

The target of assay [2] is T1, GPR17. As to the kind of experiment: cAMP accumulation functional assay (HTRF, Schild analysis). Conditions: CHO hGPR17 cells, Schild analysis vs MDL29,951, 5 μM forskolin, read-out: cAMP assay pA2 (converted). Format: cell-based. Set-up: host or cells: Flp-In T-REx CHO. As for the experimental part:
Flp-In T-REx CHO cells stably expressing human GPR17 receptor (CHO hGPR17) from Evi Kostenis' lab (Bonn University, Germany) were cultured at 37° C. in a humidified atmosphere of 5% CO2. Cells were grown in DMEM with Nutrient Mixture F-12 supplemented with hygromycin B (500 μg/mL) and blasticidin (30 μg/mL). Expression from the Flp-In locus was induced by treatment with doxycycline (1 μg/mL) for 16-20 h prior assays.
GPR17 activation can also recruit Gi-type G-protein signaling, resulting in a decrease of intracellular cyclic adenosine monophosphate (cAMP). Intracellular cAMP changes can be measured using the HTRF cAMP dynamic assay kit from CisBio (Codolet, France). Using homogenous time-resolved fluorescence technology (HTRF), the assay is based on competition between native cAMP produced by cells and cAMP labelled with the dye d2. The tracer binding was determined by an anti-cAMP antibody labeled with cryptate.
CHO hGPR17 were detached with PBS containing EDTA and dispatched in black 384-well plates with 5,000 cells per well. Cells were first incubated for 30 minutes at room temperature in HBSS Hepes (pH 7.4) containing vehicle or varying concentrations of test GPR17 antagonist/inverse agonist compounds. […] After 60 minutes incubation at room temperature, the reaction is terminated and the cells lysed by adding the d2 detection reagent and the cryptate reagent in 10 μL lysis buffer each according to manufacturer's instructions. After 60 minutes incubation, changes in cAMP concentrations are measured according to manufacturer's instructions using an Envision plate reader with laser excitation. All incubations were performed in duplicate. Data was analyzed using GraphPad Prism software using the 4-parameter logistic equation to measure MDL29,951 pEC50s in absence and presence of GPR17 antagonist/inverse agonist test compounds. Dose ratio (DR) were plotted against antagonist concentrations and Schild analysis provided estimated affinity pA2 of GPR17 antagonist/inverse agonist test compounds.
The activities of the Example compounds tested are depicted in the table below. The activity ranges A, B and C refer to pA2 values in the cAMP assay as follows: “A”: pA2<7.5, “B”: pA2 7.5<x≤8.5, “C”: pA2>8.5.

T1 sequence (Q13304 whole entry): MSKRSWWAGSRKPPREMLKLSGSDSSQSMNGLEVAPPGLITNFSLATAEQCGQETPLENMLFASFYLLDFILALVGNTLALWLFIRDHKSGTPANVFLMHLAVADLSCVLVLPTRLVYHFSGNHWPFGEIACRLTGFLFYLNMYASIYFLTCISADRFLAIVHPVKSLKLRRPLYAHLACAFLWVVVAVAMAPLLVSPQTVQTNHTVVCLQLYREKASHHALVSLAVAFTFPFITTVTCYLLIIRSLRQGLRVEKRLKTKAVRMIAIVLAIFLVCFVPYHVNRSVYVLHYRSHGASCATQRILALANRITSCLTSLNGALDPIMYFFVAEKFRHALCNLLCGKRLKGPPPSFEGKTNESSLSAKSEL

On to `O=S(=O)(Nc1cc(Cl)ccc1F)c1c[nH]c2cc(Cl)ccc12` [Compound I-4, 6-chloro-N-(5-chloro-2-fluorophenyl)-1H-indole-3-sulfonamide], for which the IC50 in assay [1] was greater than 31.6 nM. Also, in assay [2], the Kb is 3.16 to 31.6 nM.
With `O=C1OCc2ccc(NS(=O)(=O)c3c[nH]c4cc(Cl)ccc34)cc21` [Compound I-8, 6-chloro-N-(3-oxo-1,3-dihydro-2-benzofuran-5-yl)-1H-indole-3-sulfonamide], the IC50 in assay [1] was greater than 31.6 nM. The Kb in assay [2] was greater than 31.6 nM.
On to `O=S(=O)(Nc1cc(F)ccc1F)c1c[nH]c2cc(Cl)ccc12` [Compound I-9, 6-chloro-N-(2,5-difluorophenyl)-1H-indole-3-sulfonamide], for which the IC50 in assay [1] is 3.16 to 31.6 nM. For the same compound, the Kb in assay [2] is 3.16 to 31.6 nM.
Turning to `N#Cc1ccc(NS(=O)(=O)c2c[nH]c3cc(Cl)ccc23)cc1` [Compound I-12, 6-chloro-N-(4-cyanophenyl)-1H-indole-3-sulfonamide], the IC50 in assay [1] was less than 3.16 nM. The Kb in assay [2] is 3.16 to 31.6 nM.
In the same order, the values of `CS(=O)(=O)c1ccc2c(S(=O)(=O)Nc3ccc(C#N)cc3)c[nH]c2c1` [Compound I-14, N-(4-cyanophenyl)-6-(methylsulfonyl)-1H-indole-3-sulfonamide] are 3.16 to 31.6 nM and 3.16 to 31.6 nM.
Turning to `O=S(=O)(Nc1ccc(Cl)cc1)c1c[nH]c2cc(Cl)ccc12` [Compound I-24, 6-chloro-N-(4-chlorophenyl)-1H-indole-3-sulfonamide], the IC50 in assay [1] was greater than 31.6 nM. Moreover, the Kb in assay [2] is greater than 31.6 nM.
On to `O=S(=O)(Nc1cccc2c1OCO2)c1c[nH]c2cc(Cl)ccc12` [Compound I-25, N-(1,3-benzodioxol-4-yl)-6-chloro-1H-indole-3-sulfonamide], for which, in assay [1], the IC50 is less than 3.16 nM. Further, in assay [2], the Kb was 3.16 to 31.6 nM.
Consider `O=[N+]([O-])c1ccc(NS(=O)(=O)c2c[nH]c3cc(Cl)ccc23)cc1` [Compound I-39, 6-chloro-N-(4-nitrophenyl)-1H-indole-3-sulfonamide], for which the IC50 in assay [1] is 3.16 to 31.6 nM. Further, the Kb in assay [2] is greater than 31.6 nM.
In the case of `O=S(=O)(Nc1ccc(I)cc1F)c1c[nH]c2cc3c(cc12)OCO3` [Compound I-44, N-(2-fluoro-4-iodophenyl)-5H-[1,3]dioxolo[4,5-f]indole-7-sulfonamide], the IC50 in assay [1] was greater than 31.6 nM. Further, the Kb in assay [2] is 3.16 to 31.6 nM.
For the compound `CS(=O)(=O)c1ccc2c(S(=O)(=O)Nc3ccc(I)cc3F)c[nH]c2c1` [Compound I-48, N-(2-fluoro-4-iodophenyl)-6-(methylsulfonyl)-1H-indole-3-sulfonamide], the IC50 in assay [1] was 3.16 to 31.6 nM. In addition, in assay [2], the Kb was 3.16 to 31.6 nM.
In the case of `O=S(=O)(Nc1ccc2nsnc2c1)c1c[nH]c2cc(F)ccc12` [Compound I-169, N-(2,1,3-benzothiadiazol-5-yl)-6-fluoro-1H-indole-3-sulfonamide], in assay [1], the IC50 was greater than 31.6 nM.
Consider `N#Cc1ccc(NS(=O)(=O)c2c[nH]c3cc(F)ccc23)cc1` [Compound I-171, N-(4-cyanophenyl)-6-fluoro-1H-indole-3-sulfonamide], for which the IC50 in assay [1] is greater than 31.6 nM.
For `O=S(=O)(Nc1cc2nsnc2cc1F)c1c[nH]c2cc(F)ccc12` [Compound I-172, 6-fluoro-N-(6-fluoro-2,1,3-benzothiadiazol-5-yl)-1H-indole-3-sulfonamide], in assay [1], the IC50 is 3.16 to 31.6 nM.
For the compound `N#Cc1cc(F)c(NS(=O)(=O)c2c[nH]c3nc(Cl)ccc23)cc1F` [Compound I-176, 6-chloro-N-(4-cyano-2,5-difluorophenyl)-1H-pyrrolo[2,3-b]pyridine-3-sulfonamide], the IC50 in assay [1] is 3.16 to 31.6 nM.
For the compound `N#CCc1ccc(NS(=O)(=O)c2c[nH]c3cc(Cl)ccc23)cc1` [Compound I-180, 6-chloro-N-[4-(cyanomethyl)phenyl]-1H-indole-3-sulfonamide], the IC50 in assay [1] is greater than 31.6 nM.
Still for that read-out and setting: under `Cc1ccc2c(S(=O)(=O)Nc3cc(F)c(C#N)cc3F)c[nH]c2c1` [Compound I-187, N-(4-cyano-2,5-difluorophenyl)-6-methyl-1H-indole-3-sulfonamide] stands 3.16 to 31.6 nM; under `N#Cc1ccc(NS(=O)(=O)c2c[nH]c3cc(C(F)(F)F)ccc23)cc1` [Compound I-190, N-(4-cyanophenyl)-6-(trifluoromethyl)-1H-indole-3-sulfonamide], less than 3.16 nM.
The same measure, in the same setting: under `O=S(=O)(Nc1ccc2nsnc2c1)c1c[nH]c2cc(C(F)(F)F)ccc12` [Compound I-192, N-(2,1,3-benzothiadiazol-5-yl)-6-(trifluoromethyl)-1H-indole-3-sulfonamide] stands less than 3.16 nM.
With `COc1c(Cl)ccc2c(S(=O)(=O)Nc3cc(F)c(F)cc3F)c[nH]c12` [Compound I-196, 6-chloro-7-methoxy-N-(2,4,5-trifluorophenyl)-1H-indole-3-sulfonamide], the IC50 in assay [1] is greater than 31.6 nM.
For the compound `O=S(=O)(Nc1ccc(F)c2nonc12)c1c[nH]c2cc(Cl)ccc12` [Compound I-197, 6-chloro-N-(7-fluoro-2,1,3-benzoxadiazol-4-yl)-1H-indole-3-sulfonamide], the IC50 in assay [1] was greater than 31.6 nM.
Regarding `O=S(=O)(Nc1cccc(F)c1F)c1c[nH]c2cc(Cl)ccc12` [Compound I-205, 6-chloro-N-(2,3-difluorophenyl)-1H-indole-3-sulfonamide], the IC50 in assay [1] was greater than 31.6 nM.
With `CC(C#N)c1ccc(NS(=O)(=O)c2c[nH]c3cc(Cl)ccc23)c(F)c1` (stereo not shown) [Compound I-207, 6-chloro-N-[4-(1-cyanoethyl)-2-fluorophenyl]-1H-indole-3-sulfonamide], the IC50 in assay [1] is greater than 31.6 nM.
As for `Cc1cc(NS(=O)(=O)c2c[nH]c3cc(Cl)ccc23)ccc1C#N` [Compound I-209, 6-chloro-N-(4-cyano-3-methylphenyl)-1H-indole-3-sulfonamide], the IC50 in assay [1] was greater than 31.6 nM.
In the case of `O=S(=O)(Nc1ccc(C(F)(F)F)cn1)c1c[nH]c2cc(Cl)ccc12` [Compound I-211, 6-chloro-N-[5-(trifluoromethyl)pyridin-2-yl]-1H-indole-3-sulfonamide], in assay [1], the IC50 was greater than 31.6 nM.
The same measure, in the same setting: for `Cc1cc(NS(=O)(=O)c2c[nH]c3cc(Cl)ccc23)c(F)cc1Cl` [Compound I-214, 6-chloro-N-(4-chloro-2-fluoro-5-methylphenyl)-1H-indole-3-sulfonamide] the value was greater than 31.6 nM.
Regarding `O=S(=O)(Nc1ccc(S(F)(F)(F)(F)F)cc1)c1c[nH]c2cc(Cl)ccc12` [Compound I-217, 6-chloro-N-[4-(pentafluoro-lambda6-sulfanyl)phenyl]-1H-indole-3-sulfonamide], the IC50 in assay [1] is greater than 31.6 nM.
Take `O=S(=O)(Nc1ccc(Br)cc1)c1c[nH]c2cc(Cl)ccc12` [Compound I-218, N-(4-bromophenyl)-6-chloro-1H-indole-3-sulfonamide]: in assay [1], the IC50 was greater than 31.6 nM.
With `N#Cc1ccc(NS(=O)(=O)c2c[nH]c3cc(OCC4CCCO4)ccc23)c(F)c1` (stereo not shown) [Compound I-222, N-(4-cyano-2-fluorophenyl)-6-(tetrahydrofuran-2-ylmethoxy)-1H-indole-3-sulfonamide], the IC50 in assay [1] is greater than 31.6 nM.
For `N#Cc1ccc(NS(=O)(=O)c2c[nH]c3cc(-c4ccncc4)ccc23)c(F)c1` [Compound I-231, N-(4-cyano-2-fluorophenyl)-6-(pyridin-4-yl)-1H-indole-3-sulfonamide], the IC50 in assay [1] is greater than 31.6 nM.
As for `COc1ccc(-c2ccc3c(S(=O)(=O)Nc4ccc(C#N)cc4F)c[nH]c3c2)cc1` [Compound I-232, N-(4-cyano-2-fluorophenyl)-6-(4-methoxyphenyl)-1H-indole-3-sulfonamide], the IC50 in assay [1] is greater than 31.6 nM.
As for `Cc1noc(C)c1-c1ccc2c(S(=O)(=O)Nc3ccc(C#N)cc3F)c[nH]c2c1` [Compound I-234, N-(4-cyano-2-fluorophenyl)-6-(3,5-dimethyl-1,2-oxazol-4-yl)-1H-indole-3-sulfonamide], the IC50 in assay [1] is greater than 31.6 nM.
On to `COc1nc(NS(=O)(=O)c2c[nH]c3cc(Br)ccc23)c(F)cc1CC#N` [Compound I-320, 6-bromo-N-[5-(cyanomethyl)-3-fluoro-6-methoxypyridin-2-yl]-1H-indole-3-sulfonamide], for which, in assay [1], the IC50 was less than 3.16 nM.
In the case of `COc1nc(NS(=O)(=O)c2c[nH]c3c(Br)c(Cl)ccc23)c(F)cc1CC#N` [Compound I-322, 7-bromo-6-chloro-N-[5-(cyanomethyl)-3-fluoro-6-methoxypyridin-2-yl]-1H-indole-3-sulfonamide], the IC50 in assay [1] was less than 3.16 nM.
